For 3 molecules, Ki results are on record in BindingDB's records for doi:10.1021/jm9604890 (University of Groningen, 1997).

This test in a line: Compound was tested for intrinsic efficacy against human 5-hydroxytryptamine 1D receptor alpha measured as the reduction of forskolin-stimulated cAMP.

Broadly, the Ki is a dissociation constant, usually derived from enzyme kinetics or from competition with a known ligand. A low value points to a stronger hold on the target. With `NCCc1c[nH]c2ccc(OS(=O)(=O)C(F)(F)F)cc12` [Trifluoro-methanesulfonic acid 3-(2-amino-ethyl)-1H-indol-5-yl ester], the Ki came to 0.019 µM. On to `CN(C)CCc1c[nH]c2ccc(OS(=O)(=O)C(F)(F)F)cc12` [Trifluoro-methanesulfonic acid 3-(2-dimethylamino-ethyl)-1H-indol-5-yl ester], for which the Ki amounted to 0.03 µM.

Molecule `CCCN(CCC)CCc1c[nH]c2ccc(OS(=O)(=O)C(F)(F)F)cc12` [Trifluoro-methanesulfonic acid 3-(2-dipropylamino-ethyl)-1H-indol-5-yl ester] had a Ki of 0.036 µM.
